Experimental data published in patent US6878699B1, “Taccalonolide microtubule stabilizing agents” (University of Hawaii, priority 1999, dated 2005).

What was measured:
[1] = test system: SKVLB-1 cell line (sub-line of SK-OV-3 selected for resistance to vinblastine, P-glycoprotein-overexpressing)
Description: (§1) A-10 rat aortic smooth muscle cells, SK-OV-3 human ovarian carcinoma cell line and HeLa cells were obtained from the American Type Culture Collection (Manassas, Va.) and were cultured in BME containing 10% FBS and 50 μg/1 mL gentamycin sulfate. […] The A-10, HeLa, SK-OV-3, and SKVBL-1 cells were grown in Basal Medium Eagle containing Earle's salts, 50 μg/ml gentamycin, and 10% fetal bovine sorum (Hyclone, Logan Utah). Vinblastine was added to a final concentration of 1 μg/mL to SKVLB-1 cells 24 hours after passage to maintain selection pressure for P-glycoprotein-overexpressing cells.
(§2) The IC50 for inhibition of cell proliferation was determined by measuring cell-associated protein after drug treatment using the sulforhodamine B assay (see, for example, J. Natl. Cancer Inst. 82:1107-1112 (1990) and Drug Development Res. 34:91-109 (1995)).
(§3) The IC50 for each cell line was calculated from the dose response curves. The resistance factor was calculated by dividing the IC50 of the drug sensitive cell line by the IC50 of the drug resistant cell line. The values represent the mean of 3 or 4 experiments ± the SD.

[2] = test system: SKVLB-1 cell line (sub-line of SK-OV-3 selected for resistance to vinblastine, P-glycoprotein-overexpressing); settings: SK-OV-3 versus SKVLB-1; Mooberry et al. 1999, Smith et al. 1994; cited from earlier work
[3] = test system: purified glycerol-free bovine brain tubulin; assay: Assembly of purified tubulin (turbidity); format: biochemical; settings: for Potency in tubulin polymerization relative to Taxol/paclitaxel: compared with 2 μM paclitaxel
Description: The assembly of purified tubulin was monitored spectrophotometrically by the change in absorbance at 340 nm. Purified glycerol-free bovine brain tubulin (TL-238, Cytoskeleton, Denver, Colo.) was solubilized in ice cold G-PEM buffer (80 mM PIPES, pH 6.9, 1 mM MgCl2, 1 mM EGTA and 1 mM GTP) and taccalonolide, Taxol or vehicle control was added and mixed well. The final concentration of tubulin was 1 mg/ml and ethanol concentration was 1% or less. An aliquot of the mixture was transferred to a room temperature 96 well plate and tubulin polymerization monitored for 60 min. at 35° C. in a temperature controlled microplate spectrophotometer.

[4] = test system: A-10 rat aortic smooth muscle cells; assay: Indirect immunofluorescence of microtubules, mitotic spindles and nuclei; settings: low concentration 0.5 μM; cell line not specified (A-10 or HeLa)
Description: A-10 cells were grown to 70-85% confluency on glass coverslips in BME/10% FBS. Drug compounds in PBS were added to the indicated final concentrations and cells were incubated for an additional 24 hours. For the staining of microtubules and intermediate filaments, the cells were fixed with cold methanol for 5 minutes, blocked for 20 minutes with PBS containing 10% calf serum to block nonspecific binding sites, and incubated at 37° C. for 60-90 min with monoclonal anti-β-tubulin at the dilutions recommended by the manufacturer. Bound primary antibodies were subsequently visualized by a one hour incubation with fluorescein (FITC)-conjugated sheep antimouse IgG (F-3008; Sigma). The coverslips were washed, stained with 0.1 μg/mL DAPI for 10 minutes, mounted on microscope slides and the fluorescence patterns were examined and photographed using a Zeiss Axioplan microscope equipped with epifluorescence optics for fluorescein and DAPI.

[5] = test system: SK-OV-3 human ovarian carcinoma cell line; assay: Inhibition of cell proliferation, sulforhodamine B (SRB) assay; format: cell-based; settings: 48 hr treatment, mean of 3 or 4 experiments ± SD
Description: as §1, §2, §3

[6] = test system: SKVLB-1 cell line (sub-line of SK-OV-3 selected for resistance to vinblastine, P-glycoprotein-overexpressing); assay: Inhibition of cell proliferation, SRB assay, multidrug-resistant line
Description: as §1, §2, §3

[7] = test system: MDA-MB-435 human mammary adenocarcinoma cell line; assay: Inhibition of cell proliferation, sulforhodamine B (SRB) assay; settings: read-out: IC50 inhibition of proliferation, MDA-MB-435, 48 hr treatment, mean of 3 or 4 experiments ± SD
Description: as §1, §2, §3

Bc1-2 and caspase 3 = settings: 18 and 24 hrs following treatment
Description: Following drug exposure the cells were harvested and cellular proteins extracted in radioimmunoprecipitation buffer in the presence of protease inhibitors as described previously (see Mooberry et al., Supra). The protein concentrations of the samples were determined (Pierce Reagent, Rockford, Ill.) and cell lysate aliquots containing equal concentrations of protein were separated, transferred, probed with specific antibodies, and detected as previously described (see Mooberry et al., in Cancer Res. 59:653-660 (1999)). The Bc1-2 and caspase 3 antibodies were purchased from PharMingin (San Diego, Calif.).

CC(=O)O[C@H]1C(=O)[C@@]2(C)[C@H]([C@H](OC(=O)c3ccccc3)[C@]3(O)C[C@H](OC(=O)[C@H](O)[C@@H](NC(=O)c4ccccc4)c4ccccc4)C(C)=C1C3(C)C)[C@]1(OC(C)=O)CO[C@@H]1C[C@@H]2O [Paclitaxel]
inhibition [1]: ≤ 70%
Resistance factor (literature) [2]: greater than 58,000

COc1ccc(C[C@H]2NC(=O)/C=C/C[C@@H]([C@H](C)[C@H]3O[C@@H]3c3ccccc3)OC(=O)[C@H](CC(C)C)OC(=O)[C@H](C)CNC2=O)cc1Cl [cryptophycin 1]
Resistance factor (literature) [2]: 1.1

C=C1C[C@H](C)C[C@@H]2CC=C[C@@H](C/C=C\C(=O)O[C@H]([C@@H](O)/C=C/[C@@H]3CC(C)=CCO3)C[C@@H]3O[C@H]3[C@@H](O)C1)O2 [laulimalide]
Resistance factor (literature) [2]: 105

taccalonolide A
Effect on polymerization of purified tubulin ([3]; 2 μM and 200 μM, 35° C., 60 min): stimulated the polymerization of tubulin
Potency in tubulin polymerization relative to Taxol/paclitaxel ([3]; listed as Taccalonolide): much less potent than Taxol
Potency in tubulin polymerization relative to Taxol/paclitaxel ([3]; listed as taccalonolide): much less potent than paclitaxel
First observable cellular change in dose-response study [4]: abnormal coordination of the DNA in the metaphase plate during mitosis
IC50 [5]: 2300 nM
Inhibition of proliferation of SKVLB-1 (in words) ([6]; P-glycoprotein overexpressing line): completely inhibit the proliferation
Resistance factor ([6]; SK-OV-3 (drug-sensitive) versus SKVLB-1 (drug resistant) IC50): 285
Substrate for P-glycoprotein mediated drug transport ([6]; inferred from resistance factor SK-OV-3/SKVLB-1): poor substrate
IC50 ([6]; read-out: IC50 inhibition of proliferation, SKVLB-1, 48 hr treatment, SRB assay, multidrug-resistant line, mean of 3 or 4 experiments ± SD): 656000 ± 42000 nM
IC50 [7]: 2100 nM
p17 subunit of activated caspase 3 by immunoblot (Bc1-2 and caspase 3): detected
